{"source": "patent EP3529257B1", "about": "“[…] METHODS OF USE THEREOF” (Sage Therapeutics, Inc., priority 2016, dated 2018)", "key": {"[1]": {"target": "T1, GluN2B glutamate receptors (Homo sapiens, UniProt Q05586+Q13224)", "T1 construct": "expressed in transfected cells; host or cells: mammalian cells (line not described for GluN2B)", "T1 sequence (Q13224 27-1484, other chains not shown)": "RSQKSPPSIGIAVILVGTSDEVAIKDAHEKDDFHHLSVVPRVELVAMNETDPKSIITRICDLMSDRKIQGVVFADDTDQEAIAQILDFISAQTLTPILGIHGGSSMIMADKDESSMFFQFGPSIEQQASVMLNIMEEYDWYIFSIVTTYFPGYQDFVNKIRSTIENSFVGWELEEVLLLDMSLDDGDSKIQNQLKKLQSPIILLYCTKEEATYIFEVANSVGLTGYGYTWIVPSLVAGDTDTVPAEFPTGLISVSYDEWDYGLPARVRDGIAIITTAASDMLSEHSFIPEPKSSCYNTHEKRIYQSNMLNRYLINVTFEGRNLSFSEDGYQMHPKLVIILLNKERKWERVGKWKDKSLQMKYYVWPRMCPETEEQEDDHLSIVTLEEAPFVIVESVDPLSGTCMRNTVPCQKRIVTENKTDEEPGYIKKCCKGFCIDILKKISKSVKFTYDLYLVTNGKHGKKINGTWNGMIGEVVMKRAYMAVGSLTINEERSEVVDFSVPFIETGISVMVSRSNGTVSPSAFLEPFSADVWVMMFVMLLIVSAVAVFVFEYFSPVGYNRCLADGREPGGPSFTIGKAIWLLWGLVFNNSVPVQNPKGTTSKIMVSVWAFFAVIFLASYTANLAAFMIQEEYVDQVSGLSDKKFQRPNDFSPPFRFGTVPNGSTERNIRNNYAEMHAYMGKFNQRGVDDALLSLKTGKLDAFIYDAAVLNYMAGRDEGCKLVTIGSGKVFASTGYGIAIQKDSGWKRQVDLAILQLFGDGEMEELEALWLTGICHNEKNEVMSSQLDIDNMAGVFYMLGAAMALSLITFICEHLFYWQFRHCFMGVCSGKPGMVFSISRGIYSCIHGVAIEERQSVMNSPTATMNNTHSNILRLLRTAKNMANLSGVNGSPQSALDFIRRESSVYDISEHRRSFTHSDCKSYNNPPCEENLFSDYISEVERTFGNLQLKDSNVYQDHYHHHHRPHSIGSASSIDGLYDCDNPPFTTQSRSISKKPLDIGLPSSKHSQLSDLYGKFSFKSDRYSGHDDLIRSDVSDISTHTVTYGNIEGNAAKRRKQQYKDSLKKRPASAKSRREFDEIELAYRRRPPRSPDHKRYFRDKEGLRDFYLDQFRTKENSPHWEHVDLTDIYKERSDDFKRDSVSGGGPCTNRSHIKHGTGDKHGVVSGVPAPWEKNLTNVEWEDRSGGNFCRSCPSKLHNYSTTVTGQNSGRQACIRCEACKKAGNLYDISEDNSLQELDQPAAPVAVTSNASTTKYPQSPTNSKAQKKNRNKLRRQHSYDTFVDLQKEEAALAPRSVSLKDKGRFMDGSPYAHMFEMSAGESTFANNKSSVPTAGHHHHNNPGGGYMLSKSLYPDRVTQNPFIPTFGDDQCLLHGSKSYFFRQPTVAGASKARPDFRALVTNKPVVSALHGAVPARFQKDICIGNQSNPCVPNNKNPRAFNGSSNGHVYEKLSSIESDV", "assay": "Whole-cell patch clamp of mammalian cells (Ionworks Barracuda), positive allosteric modulation (PAM) of NMDA receptor, 2B", "format": "cell-based", "conditions": "for Emax / Avg Emax 2B (%): % activation of current elicited with EC20 L-glutamate and 30 µM glycine; for EC50: co-application with EC20 L-glutamate and 30 µM glycine, 8-point concentration-response", "description": "(§1) The measurements were perfomed using Ion Works Barracuda platform following this procedure: • Electrophysiological Procedures: • a) Intracellular solution (mM): 50 mM CsCl, 90 mM CsF, 2 mM MgCl2, 5 mM EGTA, 10 mM HEPES. Adjust to pH 7.2 with CsOH. • b) Extracellular solution, HB-PS (composition in mM): NaCl, 137; KCl, 1.0; CaCl2, 5; HEPES, 10; Glucose, 10; pH adjusted to 7.4 with NaOH (refrigerated until use). • c) Holding potential: -70 mV, potential during agonist/PAM application: -40 mV. • Recording procedure: • a) Extracellular buffer will be loaded into the PPC plate wells (11 µL per well). Cell suspension will be pipetted into the wells (9 µL per well) of the PPC planar electrode. • b) Whole-cell recording configuration will be established via patch perforation with membrane currents recorded by on-board patch clamp amplifiers. • c) Two recordings (scans) will be performed. First, during pre-application of test article alone (duration of pre-application - 5 min) and second, during test articles and agonist (EC20 L-glutamate and 30 µM glycine) co-application to detect positive modulatory effects of the test article.\n(§2) Test Article Administration: The first pre-application will consist of the addition of 20 µL of 2X concentrated test article solution and, second, of 20 µL of 1X concentrated test article and agonist at 10 µL/s (2 second total application time).\n(§3) PAM concentration-response data will be fitted to an equation of the form: % Activation = % L−glutamate EC20 + {(%MAX−%L−glutamateEC20)/[1+(([Test]/; EC50))^N]}, [formula] where [Test] will be the concentration of PAM (test article), EC50 will be the concentration of PAM producing half-maximal activation, N will be the Hill coefficient, % L-glutamate EC20 will be the percentage of the current Elicited with L-glutamate EC20, % MAX is the percentage of the current activated with the highest dose of PAM co-admitted with L-glutamate EC20 and % Activation will be the percentage of the current elicited with L-glutamate EC10-30 at each PAM concentration.\n(§4) The maximal amplitude of the evoked currents are measured and defined as Peak Current Amplitude (PCA)."}, "[2]": {"target": "T2, GlunN1/GluN2A glutamate receptors (Homo sapiens, UniProt Q05586+Q12879)", "T2 construct": "expressed in transfected cells", "T2 sequence (Q12879 23-1464, other chains not shown)": "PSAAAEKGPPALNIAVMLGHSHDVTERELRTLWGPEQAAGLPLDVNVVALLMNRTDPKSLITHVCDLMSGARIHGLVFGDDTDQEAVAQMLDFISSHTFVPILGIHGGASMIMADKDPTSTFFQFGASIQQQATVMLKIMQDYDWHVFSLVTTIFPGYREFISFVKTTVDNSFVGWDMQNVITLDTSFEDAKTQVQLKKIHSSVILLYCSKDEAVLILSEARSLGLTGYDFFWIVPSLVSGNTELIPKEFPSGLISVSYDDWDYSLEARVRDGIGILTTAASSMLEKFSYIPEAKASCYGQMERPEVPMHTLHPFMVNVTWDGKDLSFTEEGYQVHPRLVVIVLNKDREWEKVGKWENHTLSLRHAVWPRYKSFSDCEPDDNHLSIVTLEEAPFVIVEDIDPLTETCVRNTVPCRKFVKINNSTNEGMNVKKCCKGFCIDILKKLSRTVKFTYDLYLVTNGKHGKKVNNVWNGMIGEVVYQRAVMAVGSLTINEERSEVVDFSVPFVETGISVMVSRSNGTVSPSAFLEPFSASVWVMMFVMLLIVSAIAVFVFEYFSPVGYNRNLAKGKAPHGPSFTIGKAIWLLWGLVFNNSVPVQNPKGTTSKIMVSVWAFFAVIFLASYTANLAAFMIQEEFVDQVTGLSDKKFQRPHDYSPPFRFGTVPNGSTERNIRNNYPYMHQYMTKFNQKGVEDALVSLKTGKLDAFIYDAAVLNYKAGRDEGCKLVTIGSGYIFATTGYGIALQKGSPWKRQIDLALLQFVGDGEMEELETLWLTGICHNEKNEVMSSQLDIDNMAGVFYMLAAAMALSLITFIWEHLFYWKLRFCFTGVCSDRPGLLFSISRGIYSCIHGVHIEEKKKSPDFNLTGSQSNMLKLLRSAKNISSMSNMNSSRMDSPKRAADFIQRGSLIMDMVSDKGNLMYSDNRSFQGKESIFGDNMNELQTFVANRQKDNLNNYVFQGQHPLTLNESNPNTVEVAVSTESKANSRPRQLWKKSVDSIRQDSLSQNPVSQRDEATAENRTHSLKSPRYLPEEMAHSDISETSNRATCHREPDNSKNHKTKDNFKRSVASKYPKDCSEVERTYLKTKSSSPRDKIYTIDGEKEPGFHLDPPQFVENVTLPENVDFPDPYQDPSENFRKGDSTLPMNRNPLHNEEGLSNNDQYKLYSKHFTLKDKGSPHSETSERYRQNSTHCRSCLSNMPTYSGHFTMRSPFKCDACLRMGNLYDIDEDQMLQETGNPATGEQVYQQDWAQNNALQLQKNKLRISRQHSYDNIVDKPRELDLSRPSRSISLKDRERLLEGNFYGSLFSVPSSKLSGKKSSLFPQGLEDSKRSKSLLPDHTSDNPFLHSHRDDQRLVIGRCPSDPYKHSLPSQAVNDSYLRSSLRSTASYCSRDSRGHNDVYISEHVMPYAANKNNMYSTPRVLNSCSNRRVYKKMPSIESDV", "assay": "Whole-cell patch clamp of mammalian cells (Ionworks Barracuda), positive allosteric modulation (PAM) of NMDA receptor, 2A", "format": "cell-based", "conditions": "for Emax: HEK293, HEK293 cells; for Emax / Avg Emax 2A (%): % activation of current elicited with EC20 L-glutamate and 30 µM glycine; for Avg Emax 2A (%) / EC50: HEK293 cells; for EC50: co-application with EC20 L-glutamate and 30 µM glycine, 8-point concentration-response", "description": "as §1, §2, §3, §4"}}}
{"smiles": "CC[C@]1(O)CC[C@H]2C(=CC[C@@H]3[C@@H]2CC[C@]2(C)[C@@H]([C@H](C)CC[C@H](O)C(C)C)CC[C@@H]32)C1", "note": "[Compound 8462]", "values": [{"measurement": "Emax", "setting": "[1]", "value": 281, "unit": "%"}, {"measurement": "Emax", "setting": "[2]", "value": 273, "unit": "%"}]}
{"smiles": "CC[C@]1(O)CC[C@H]2C(=CC[C@@H]3[C@@H]2CC[C@]2(C)[C@@H]([C@H](C)CC[C@@H](O)C(C)C)CC[C@@H]32)C1", "note": "[Compound 8463]", "values": [{"measurement": "Emax", "setting": "[1]", "value": 324, "unit": "%"}, {"measurement": "Emax", "setting": "[2]", "value": 291, "unit": "%"}]}
{"smiles": "CC[C@]1(O)CC[C@H]2C(=CC[C@@H]3[C@@H]2CC[C@]2(C)[C@@H]([C@H](C)CC[C@]4(O)CCOC4)CC[C@@H]32)C1", "note": "[Compound 8603]", "values": [{"measurement": "Emax", "setting": "[1]", "value": 271, "unit": "%"}, {"measurement": "Emax", "setting": "[2]", "value": 294, "unit": "%"}]}
{"smiles": "CC[C@]1(O)CC[C@H]2C(=CC[C@@H]3[C@@H]2CC[C@]2(C)[C@@H]([C@H](C)CCC4(O)CCOC4)CC[C@@H]32)C1", "note": "(stereo partly shown) [Compound 8689]", "values": [{"measurement": "Emax", "setting": "[1]", "value": 439, "unit": "%"}, {"measurement": "Emax", "setting": "[2]", "value": 320, "unit": "%"}]}
{"smiles": "C[C@H](CC[C@](C)(O)C(F)(F)F)[C@H]1CC[C@H]2[C@@H]3CC=C4C[C@@](C)(O)CC[C@@H]4[C@H]3CC[C@]12C", "note": "[Compound 9062]", "values": [{"measurement": "Avg Emax 2B (%)", "setting": "[1]", "value": 52.2, "unit": "%"}, {"measurement": "EC50", "setting": "[1]", "value": 179, "unit": "nM"}, {"measurement": "Avg Emax 2A (%)", "setting": "[2]", "value": 66.5, "unit": "%"}, {"measurement": "EC50", "setting": "[2]", "value": 34.5, "unit": "nM"}]}
{"smiles": "CC[C@]1(O)CC[C@H]2C(=CC[C@@H]3[C@@H]2CC[C@]2(C)[C@@H]([C@H](C)CCC[C@@H](O)C(C)C)CC[C@@H]32)C1", "note": "[Compound 10114]", "values": [{"measurement": "Avg Emax 2B (%)", "setting": "[1]", "value": 179.1, "unit": "%"}, {"measurement": "EC50", "setting": "[1]", "value": 506, "unit": "nM"}, {"measurement": "Avg Emax 2A (%)", "setting": "[2]", "value": 146.3, "unit": "%"}, {"measurement": "EC50", "setting": "[2]", "value": 321, "unit": "nM"}]}
{"smiles": "CC[C@]1(O)CC[C@H]2C(=CC[C@@H]3[C@@H]2CC[C@]2(C)[C@@H]([C@H](C)CCCC4(O)CCC(C)(C)CC4)CC[C@@H]32)C1", "note": "[Compound 10317]", "values": [{"measurement": "Avg Emax 2B (%)", "setting": "[1]", "value": 59.9, "unit": "%"}, {"measurement": "EC50", "setting": "[1]", "value": "> 10000", "unit": "nM"}, {"measurement": "Avg Emax 2A (%)", "setting": "[2]", "value": 56.7, "unit": "%"}, {"measurement": "EC50", "setting": "[2]", "value": "> 10000", "unit": "nM"}]}
{"smiles": "CCC(O)CCC[C@@H](C)[C@H]1CC[C@H]2[C@@H]3CC=C4C[C@](O)(CC)CC[C@@H]4[C@H]3CC[C@]12C", "note": "(stereo partly shown) [Compound 10673]", "values": [{"measurement": "Avg Emax 2B (%)", "setting": "[1]", "value": 213.5, "unit": "%"}, {"measurement": "EC50", "setting": "[1]", "value": 180, "unit": "nM"}, {"measurement": "Avg Emax 2A (%)", "setting": "[2]", "value": 215.5, "unit": "%"}, {"measurement": "EC50", "setting": "[2]", "value": 254, "unit": "nM"}]}
{"smiles": "CC[C@H](O)CCC[C@@H](C)[C@H]1CC[C@H]2[C@@H]3CC=C4C[C@](O)(CC)CC[C@@H]4[C@H]3CC[C@]12C", "note": "[Compound 10949]", "values": [{"measurement": "Avg Emax 2B (%)", "setting": "[1]", "value": 147.4, "unit": "%"}, {"measurement": "EC50", "setting": "[1]", "value": 138, "unit": "nM"}, {"measurement": "Avg Emax 2A (%)", "setting": "[2]", "value": 97.4, "unit": "%"}, {"measurement": "EC50", "setting": "[2]", "value": 66.4, "unit": "nM"}]}
{"smiles": "C[C@H](CCC[C@H](O)C(F)(F)F)[C@H]1CC[C@H]2[C@@H]3CC[C@H]4C[C@](O)(C(F)(F)F)CC[C@]4(C)[C@H]3CC[C@]12C", "note": "[Compound 11934]", "values": [{"measurement": "Avg Emax 2B (%)", "setting": "[1]", "value": 70.0, "unit": "%"}, {"measurement": "EC50", "setting": "[1]", "value": 470, "unit": "nM"}, {"measurement": "Avg Emax 2A (%)", "setting": "[2]", "value": 113.4, "unit": "%"}, {"measurement": "EC50", "setting": "[2]", "value": 729, "unit": "nM"}]}
{"smiles": "C[C@H](CCC[C@@H](O)C(C)(C)C)[C@H]1CC[C@H]2[C@@H]3CC[C@H]4C[C@](O)(C(F)(F)F)CC[C@]4(C)[C@H]3CC[C@]12C", "note": "[Compound 12055]", "values": [{"measurement": "Avg Emax 2B (%)", "setting": "[1]", "value": 184.7, "unit": "%"}, {"measurement": "EC50", "setting": "[1]", "value": 1130, "unit": "nM"}, {"measurement": "Avg Emax 2A (%)", "setting": "[2]", "value": 113.8, "unit": "%"}, {"measurement": "EC50", "setting": "[2]", "value": 506, "unit": "nM"}]}
{"smiles": "C[C@H](CCC[C@H](O)C(C)(C)C)[C@H]1CC[C@H]2[C@@H]3CC[C@H]4C[C@](O)(C(F)(F)F)CC[C@]4(C)[C@H]3CC[C@]12C", "note": "[Compound 12156]", "values": [{"measurement": "Avg Emax 2B (%)", "setting": "[1]", "value": 111.2, "unit": "%"}, {"measurement": "EC50", "setting": "[1]", "value": 2460, "unit": "nM"}, {"measurement": "Avg Emax 2A (%)", "setting": "[2]", "value": 43.2, "unit": "%"}, {"measurement": "EC50", "setting": "[2]", "value": 154, "unit": "nM"}]}
